# From the supplement of paper PMC9663587
# Tests used:
# [1] = compound: T1, CN1CC[C@H](c2c(O)cc(O)c3c(=O)cc(-c4ccccc4Cl)oc23)[C@H](O)C1 [Flavopiridol]
# [2] = compound: COc1cccc2c1C(=O)c1c(O)c3c(c(O)c1C2=O)C[C@@](O)(C(=O)CO)C[C@@H]3O[C@H]1C[C@H](N)[C@H](O)[C@H](C)O1 [Doxorubicin]
# [3] = compound: CC(C)NC[C@@H](C(=O)N1CCN(c2ncnc3c2[C@H](C)C[C@H]3O)CC1)c1ccc(Cl)cc1 [Ipatasertib/GDC0068]
# [4] = compound: CCNC(=O)c1noc(-c2cc(C(C)C)c(O)cc2O)c1-c1ccc(CN2CCOCC2)cc1 [Luminespib/NVP-AUY922]
# [5] = compound: O=C(c1cc(Cc2n[nH]c(=O)c3ccccc23)ccc1F)N1CCN(C(=O)C2CC2)CC1 [Olaparib/AZD2281]
# [6] = compound: CN(C)CC[C@H](CSc1ccccc1)Nc1ccc(S(=O)(=O)NC(=O)c2ccc(N3CCN(Cc4ccccc4-c4ccc(Cl)cc4)CC3)cc2)cc1[N+](=O)[O-] [ABT-737]
# [7] = compound: CC(=O)O[C@H]1C(=O)[C@@]2(C)[C@H]([C@H](OC(=O)c3ccccc3)[C@]3(O)C[C@H](OC(=O)[C@H](O)[C@@H](NC(=O)c4ccccc4)c4ccccc4)C(C)=C1C3(C)C)[C@]1(OC(C)=O)CO[C@@H]1C[C@@H]2O [Paclitaxel]
# [8] = compound: Cc1nc(-c2cn3c(n2)-c2ccc(-c4cnn(C(C)(C)C(N)=O)c4)cc2OCC3)n(C(C)C)n1 [Taselisib/GDC0032]
# [9] = compound: CN(C)C/C=C/C(=O)Nc1ccc(O[C@@H]2CCC[C@@H](Nc3ncc(Cl)c(-c4c[nH]c5ccccc45)n3)C2)cc1 [BSJ-01-175]
# [10] = compound: T1, Flavopiridol; experiment: GR value, 72 h; higher = faster growth (1 = untreated, <0 = killing);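 also: breast cancer and non-malignant breast epithelial lines, nine half-log doses, viable cells counted by Hoechst and LIVE/DEAD dye imaging versus time-zero plates and DMSO controls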
# [11] = compound: CN(C)C(=O)c1cc2cnc(Nc3ccc(N4CCNCC4)cn3)nc2n1C1CCCC1 [LEE011/Ribociclib]; experiment: as above
# [12] = compound: CCN1CCN(Cc2ccc(Nc3ncc(F)c(-c4cc(F)c5nc(C)n(C(C)C)c5c4)n3)nc2)CC1; experiment: as above
# [13] = compound: C=CC(=O)Nc1ccc(C(=O)Nc2[nH]nc3c2CN(C(=O)N[C@H](CN(C)C)c2ccccc2)C3(C)C)cc1 [YKL-5-124]; experiment: as above
# [14] = compound: CC(=O)c1c(C)c2cnc(Nc3ccc(N4CCN(CCOCCOCCOCCNC(=O)COc5cccc6c5C(=O)N(C5CCC(=O)NC5=O)C6=O)CC4)cn3)nc2n(C2CCCC2)c1=O [BSJ-03-123]; experiment: as above
# [15] = compound: CC(=O)c1c(C)c2cnc(Nc3ccc(N4CCNCC4)cn3)nc2n(C2CCCC2)c1=O; experiment: as above
# [16] = compound: CCc1cnn2c(NCc3ccc[n+]([O-])c3)cc(N3CCCC[C@H]3CCO)nc12; experiment: as above
# [17] = compound: CN(C)C/C=C/C(=O)Nc1ccc(C(=O)N2CCC[C@@H](Nc3ncc(Cl)c(-c4c[nH]c5ccccc45)n3)C2)cc1 [THZ531]; experiment: as above
# 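For GR50, 72 h in this document: breast cancer and non-malignant breast epithelial cell lines, Deep Dye Drop or Dye Drop imaging, nine half-log doses, GR normalized to time-zero plates and DMSO-only controls.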
cell line,measurement,setting,value
HCC1395,"GR50, 72 h",[1],0.126 µM
same,"GR50, 72 h",[2],0.0179 µM
same,"GR50, 72 h",[3],0.926 µM
same,"GR50, 72 h",[4],0.005 µM
same,"GR50, 72 h",[5],1.87 µM
same,"GR50, 72 h",[6],> 10 µM
same,"GR50, 72 h",[7],0.00388 µM
same,"GR50, 72 h",[8],2.14 µM
same,"GR50, 72 h",[9],0.015 µM
same,GR value,[10]; 0.0001 µM,1.02 GR
same,GR value,[10]; 0.0003162 µM,0.885 GR
same,GR value,[10]; 0.001 µM,0.933 GR
same,GR value,[10]; 0.003162 µM,0.826 GR
same,GR value,[10]; 0.01 µM,0.75 GR
same,GR value,[10]; 0.03162 µM,0.973 GR
same,GR value,[10]; 0.1 µM,0.683 GR
same,GR value,[10]; 0.3162 µM,-0.0127 GR
same,GR value,[10]; 1 µM,-0.672 GR
same,GR value,[11]; 0.001 µM,0.88 GR
same,GR value,[11]; 0.003162 µM,0.843 GR
same,GR value,[11]; 0.01 µM,0.691 GR
same,GR value,[11]; 0.03162 µM,0.847 GR
same,GR value,[11]; 0.1 µM,0.657 GR
same,GR value,[11]; 0.3162 µM,0.674 GR
same,GR value,[11]; 1 µM,0.569 GR
same,GR value,[11]; 3.162 µM,0.553 GR
same,GR value,[11]; 10 µM,0.415 GR
same,GR value,[12]; 0.001 µM,0.922 GR
same,GR value,[12]; 0.003162 µM,0.928 GR
same,GR value,[12]; 0.01 µM,0.734 GR
same,GR value,[12]; 0.03162 µM,0.594 GR
same,GR value,[12]; 0.1 µM,0.387 GR
same,GR value,[12]; 0.3162 µM,0.361 GR
same,GR value,[12]; 1 µM,0.283 GR
same,GR value,[12]; 3.162 µM,0.0357 GR
same,GR value,[12]; 10 µM,-0.543 GR
same,GR value,[13]; 0.001 µM,0.63 GR
same,GR value,[13]; 0.003162 µM,0.375 GR
same,GR value,[13]; 0.01 µM,0.275 GR
same,GR value,[13]; 0.03162 µM,0.158 GR
same,GR value,[13]; 0.1 µM,0.0856 GR
same,GR value,[13]; 0.3162 µM,0.0979 GR
same,GR value,[13]; 1 µM,0.0594 GR
same,GR value,[13]; 3.162 µM,-0.0428 GR
same,GR value,[13]; 10 µM,-0.311 GR
same,GR value,[14]; 0.001 µM,0.847 GR
same,GR value,[14]; 0.003162 µM,0.925 GR
same,GR value,[14]; 0.01 µM,0.769 GR
same,GR value,[14]; 0.03162 µM,0.767 GR
same,GR value,[14]; 0.1 µM,0.774 GR
same,GR value,[14]; 0.3162 µM,0.692 GR
same,GR value,[14]; 1 µM,0.572 GR
same,GR value,[14]; 3.162 µM,0.534 GR
same,GR value,[14]; 10 µM,-0.188 GR
same,GR value,[15]; 0.0003162 µM,1.12 GR
same,GR value,[15]; 0.001 µM,1.07 GR
same,GR value,[15]; 0.003162 µM,1.06 GR
same,GR value,[15]; 0.01 µM,0.944 GR
same,GR value,[15]; 0.03162 µM,0.702 GR
same,GR value,[15]; 0.1 µM,0.495 GR
same,GR value,[15]; 0.3162 µM,0.444 GR
same,GR value,[15]; 1 µM,0.386 GR
same,GR value,[15]; 3.162 µM,0.324 GR
same,GR value,[16]; 0.0001 µM,1.09 GR
same,GR value,[16]; 0.0003162 µM,1.1 GR
same,GR value,[16]; 0.001 µM,1.05 GR
same,GR value,[16]; 0.003162 µM,1.04 GR
same,GR value,[16]; 0.01 µM,0.649 GR
same,GR value,[16]; 0.03162 µM,-0.319 GR
same,GR value,[16]; 0.1 µM,-0.482 GR
same,GR value,[16]; 0.3162 µM,-0.507 GR
same,GR value,[16]; 1 µM,-0.488 GR
same,GR value,[17]; 0.0001 µM,1.14 GR
same,GR value,[17]; 0.0003162 µM,0.962 GR
same,GR value,[17]; 0.001 µM,0.995 GR
same,GR value,[17]; 0.003162 µM,0.947 GR
same,GR value,[17]; 0.01 µM,0.976 GR
same,GR value,[17]; 0.03162 µM,0.76 GR
same,GR value,[17]; 0.1 µM,0.408 GR
same,GR value,[17]; 0.3162 µM,-0.251 GR
same,GR value,[17]; 1 µM,-0.587 GR
